{
  "source": "patent US20240240224A1",
  "about": "“FLUORESCENT D-TYPE AMINO ACID METABOLISM MARKER-BASED METHOD FOR DETECTING ANTIBACTERIAL DRUG SENSITIVITY TEST” (priority 2020, published 2024)",
  "key": {"E. faecalis ATCC29212 [1]": {"tested_on": "E. faecalis ATCC29212", "assay": "FaAST (FDAA metabolic labeling method)", "format": "cell-based, Enterococcus faecalis", "settings": "unit assumed", "description": "(§1) Take the colony to be tested that has been cultured overnight on the plate and fully mix it in normal saline to make a uniform bacterial solution. Dilute it into Cation-Adjusted Mueller Hinton Broth (CAMHB) culture medium to make a bacterial solution with OD600=0.05. • 2. Add 45 μl antibiotic solutions of different concentrations to 96-well plates (see Table 1 for antibiotic concentration gradient settings). • 3. Add 50 μl of the bacterial solution prepared in step 1 to the 96-well plate and mix well. • 4. Add 5 μl of 10 mM Cy5-DAA probe (final concentration 0.15 mM, see FIG. 1 for its structure) into each well, mix well, and cultivate in dark for 2 hours. • 5. Add 200 μl After PBS solution is diluted, the fluorescence intensity of each sample is detected by flow cytometry. The flow detection results are shown in FIG. 4-5, showing the curve of the change of antibiotic concentration gradient and fluorescence intensity. The MIC (minimum inhibitory concentration) can be obtained by referring to this curve.\n(§2) Bacteria with antibiotic resistance are shown in bold in the following table."}, "S. aureus Sa22 [2]": {"tested_on": "S. aureus Sa22", "assay": "FaAST (FDAA metabolic labeling method)", "format": "cell-based, Staphylococcus aureus", "settings": "unit assumed", "description": "as §1, §2"}, "S. aureus ATCC29213 [3]": {"tested_on": "S. aureus ATCC29213", "assay": "FaAST (FDAA metabolic labeling method)", "format": "cell-based, Staphylococcus aureus", "settings": "unit assumed", "description": "as §1, §2"}, "S. aureus Sa23 [4]": {"tested_on": "S. aureus Sa23", "assay": "FaAST (FDAA metabolic labeling method)", "format": "cell-based, Staphylococcus aureus", "settings": "unit assumed", "description": "as §1, §2"}, "[5]": {"tested_on": "alveolar lavage fluid sample 0203, K. pneumoniae", "assay": "FaAST (FDAA) susceptibility test of patient alveolar lavage fluid", "format": "cell-based, Klebsiella pneumoniae", "settings": "unit assumed", "description": "(§3) With reference to the flow chart of the rapid detection method of antimicrobial susceptibility test based on FDAA metabolic markers shown in FIG. 3, FDAA is used for the detection of antimicrobial susceptibility test of alveolar lavage fluid. The specific experimental steps are as follows: • 1. Mix bronchoalveolar lavage fluid (BALF, 10 ml) of patients with hospital acquired pneumonia with cation regulated broth medium (CAMHB, 10 ml) of twice the concentration to prepare the bacterial fluid to be tested. • 2. Add 45 μl antibiotic solutions of different concentrations to the 96-well plate separately (see Table 1 for antibiotic concentration gradient settings). • 3. Add 50 μl of the bacterial solution prepared in step 1 to the 96-well plate and mix well. • 4. Add 5 μl of 10 mM Cy5-DAA probe (final concentration 0.15 mM, see FIG. 1 for its structure) into each well, mix well, and then cultivate in dark for 2 hours. • 5. Add 200 μl PBS solution for dilution, and then use flow cytometry to detect the fluorescence intensity of each sample.\n(§4) The results of antimicrobial susceptibility test of alveolar lavage fluid of seven patients using FDAA and BMD methods are shown in the following table. The drug-resistant bacteria are shown in bold."}, "[6]": {"tested_on": "alveolar lavage fluid sample 0226, K. pneumoniae", "assay": "FaAST (FDAA) susceptibility test of patient alveolar lavage fluid", "format": "cell-based, Klebsiella pneumoniae", "settings": "unit assumed", "description": "as §3, §4"}, "[7]": {"tested_on": "Staphylococcus aureus SA22", "assay": "VITEK drug sensitivity test", "format": "cell-based", "settings": "unit assumed"}, "[8]": {"tested_on": "alveolar lavage fluid sample 0219, A. baumannii", "assay": "BMD susceptibility test of patient alveolar lavage fluid", "format": "cell-based, Acinetobacter baumannii", "settings": "unit assumed", "description": "as §4"}, "[9]": {"tested_on": "alveolar lavage fluid sample 0206, A. baumannii", "assay": "BMD susceptibility test of patient alveolar lavage fluid", "format": "cell-based, Acinetobacter baumannii", "settings": "unit assumed", "description": "as §4"}, "[10]": {"tested_on": "alveolar lavage fluid sample 0130, A. baumannii", "assay": "BMD susceptibility test of patient alveolar lavage fluid", "format": "cell-based, Acinetobacter baumannii", "settings": "unit assumed", "description": "as §4"}, "S. aureus ATCC29213 [11]": {"tested_on": "S. aureus ATCC29213", "assay": "BMD susceptibility test", "format": "cell-based, Staphylococcus aureus", "settings": "unit assumed"}, "[12]": {"tested_on": "alveolar lavage fluid sample 0204, A. baumannii", "assay": "FaAST (FDAA) susceptibility test of patient alveolar lavage fluid", "format": "cell-based, Acinetobacter baumannii", "settings": "unit assumed", "description": "as §3, §4"}, "[13]": {"tested_on": "alveolar lavage fluid sample 0219, A. baumannii", "assay": "FaAST (FDAA) susceptibility test of patient alveolar lavage fluid", "format": "cell-based, Acinetobacter baumannii", "settings": "unit assumed", "description": "as §3, §4"}, "[14]": {"tested_on": "alveolar lavage fluid sample 0206, A. baumannii", "assay": "FaAST (FDAA) susceptibility test of patient alveolar lavage fluid", "format": "cell-based, Acinetobacter baumannii", "settings": "unit assumed", "description": "as §3, §4"}, "[15]": {"tested_on": "alveolar lavage fluid sample 0130, A. baumannii", "assay": "FaAST (FDAA) susceptibility test of patient alveolar lavage fluid", "format": "cell-based, Acinetobacter baumannii", "settings": "unit assumed", "description": "as §3, §4"}, "S. aureus Sa22 [16]": {"tested_on": "S. aureus Sa22", "assay": "BMD susceptibility test", "format": "cell-based, Staphylococcus aureus", "settings": "unit assumed"}, "[17]": {"tested_on": "Staphylococcus aureus SA31", "assay": "VITEK drug sensitivity test", "format": "cell-based", "settings": "unit assumed"}, "E. faecalis ATCC29212 [18]": {"tested_on": "E. faecalis ATCC29212", "settings": "cited from earlier work"}, "S. aureus Sa23 [19]": {"tested_on": "S. aureus Sa23", "assay": "BMD susceptibility test", "format": "cell-based, Staphylococcus aureus", "settings": "unit assumed"}, "E. faecalis ATCC29212 [20]": {"tested_on": "E. faecalis ATCC29212", "assay": "BMD susceptibility test", "format": "cell-based, Enterococcus faecalis", "settings": "unit assumed"}, "E. faecium Ef26 [21]": {"tested_on": "E. faecium Ef26", "assay": "BMD susceptibility test", "format": "cell-based, Enterococcus faecium", "settings": "unit assumed"}, "[22]": {"tested_on": "Staphylococcus aureus SA22", "assay": "FaAST with DAA-Cy5-2 probe", "format": "cell-based", "settings": "unit assumed", "description": "as §3\nThe specific steps are the same as in Example 5. […] The minimum inhibitory concentration of antibiotics was obtained according to the fluorescence signal intensity of flow detection, and the statistical results are shown in Table 7."}, "S. aureus ATCC29213 [23]": {"tested_on": "S. aureus ATCC29213", "settings": "cited from earlier work"}, "E. faecium Ef26 [24]": {"tested_on": "E. faecium Ef26", "assay": "FaAST (FDAA metabolic labeling method)", "format": "cell-based, Enterococcus faecium", "settings": "unit assumed", "description": "as §1, §2"}, "[25]": {"tested_on": "alveolar lavage fluid sample 0203, K. pneumoniae", "assay": "BMD susceptibility test of patient alveolar lavage fluid", "format": "cell-based, Klebsiella pneumoniae", "settings": "unit assumed", "description": "as §4"}, "[26]": {"tested_on": "alveolar lavage fluid sample 0226, K. pneumoniae", "assay": "BMD susceptibility test of patient alveolar lavage fluid", "format": "cell-based, Klebsiella pneumoniae", "settings": "unit assumed", "description": "as §4"}, "[27]": {"tested_on": "Staphylococcus aureus SA31", "assay": "FaAST with DAA-Tetra probe", "format": "cell-based", "settings": "unit assumed", "description": "The specific experimental steps are as follows: • 1. The tested colonies cultured overnight on the plate were picked and mixed thoroughly in 2× Cation-Adjusted Mueller Hinton Broth medium (2×CAMHB) to make bacterial suspension with turbidity of OD600=0.1. • 2. […] Add 50 μL of the bacterial solution prepared in step 1 (the final concentration of the bacterial solution is OD600=0.05) to the 96-well plate, and add 5 μL of 3 mM DAA-Tetra probe (the final concentration is 0.15 mM), mix well, and incubate in the dark at 37° C. 120 rpm for 2 hours. • 4. After culture, dilute the mixed bacterial solution 10 times with PBS solution, and detect the fluorescence intensity of each sample with flow cytometry. The flow detection result is shown in FIG. 14-19, and the arrow is for the MIC value. The minimum inhibitory concentration of antibiotics was obtained according to the fluorescence signal intensity of flow detection, and the statistical results are shown in Table 6."}, "E. faecium Ef28 [28]": {"tested_on": "E. faecium Ef28", "assay": "FaAST (FDAA metabolic labeling method)", "format": "cell-based, Enterococcus faecium", "settings": "unit assumed", "description": "as §1, with “The flow detection results are shown in FIG. 4-5, showing the curve of the change of antibiotic concentration gradient and fluorescence intensity.” left out"}, "E. faecium Ef28 [29]": {"tested_on": "E. faecium Ef28", "assay": "BMD susceptibility test", "format": "cell-based, Enterococcus faecium", "settings": "unit assumed"}},
  "data": [
    {"smiles": "CC(=O)NC[C@H]1CN(c2ccc(N3CCOCC3)c(F)c2)C(=O)O1", "note": "[Linezolid, linezolid]", "values": [
      {"measurement": "FaAST (MIC)", "setting": "E. faecalis ATCC29212 [1]", "value": 2, "unit": "µg/mL"},
      {"measurement": "FaAST (MIC)", "setting": "S. aureus Sa22 [2]", "value": 1, "unit": "µg/mL"},
      {"measurement": "FaAST (MIC)", "setting": "S. aureus ATCC29213 [3]", "value": 2, "unit": "µg/mL"},
      {"measurement": "FaAST (MIC)", "setting": "S. aureus Sa23 [4]", "value": 8, "unit": "µg/mL"},
      {"measurement": "FaAST (MIC)", "setting": "[5]", "value": 16, "unit": "µg/mL"},
      {"measurement": "FaAST (MIC)", "setting": "[6]", "value": 16, "unit": "µg/mL"},
      {"measurement": "MIC, VITEK", "setting": "[7]", "value": 1, "unit": "µg/mL"},
      {"measurement": "BMD (MIC)", "setting": "[8]", "value": 32, "unit": "µg/mL"},
      {"measurement": "BMD (MIC)", "setting": "[9]", "value": 128, "unit": "µg/mL"},
      {"measurement": "BMD (MIC)", "setting": "[10]", "value": 64, "unit": "µg/mL"},
      {"measurement": "BMD (MIC)", "setting": "S. aureus ATCC29213 [11]", "value": 2, "unit": "µg/mL"},
      {"measurement": "FaAST (MIC)", "setting": "[12]", "value": 64, "unit": "µg/mL"},
      {"measurement": "FaAST (MIC)", "setting": "[13]", "value": 16, "unit": "µg/mL"},
      {"measurement": "FaAST (MIC)", "setting": "[14]", "value": 64, "unit": "µg/mL"},
      {"measurement": "FaAST (MIC)", "setting": "[15]", "value": 64, "unit": "µg/mL"},
      {"measurement": "BMD (MIC)", "setting": "S. aureus Sa22 [16]", "value": 2, "unit": "µg/mL"},
      {"measurement": "MIC, VITEK", "setting": "[17]", "value": 1, "unit": "µg/mL"},
      {"measurement": "CLSI QC range", "setting": "E. faecalis ATCC29212 [18]", "value": "1-4"},
      {"measurement": "BMD (MIC)", "setting": "S. aureus Sa23 [19]", "value": 8, "unit": "µg/mL"},
      {"measurement": "BMD (MIC)", "setting": "E. faecalis ATCC29212 [20]", "value": 1, "unit": "µg/mL"},
      {"measurement": "BMD (MIC)", "setting": "E. faecium Ef26 [21]", "value": 2, "unit": "µg/mL"},
      {"measurement": "MIC, FaAST", "setting": "[22]", "value": 0.5, "unit": "µg/mL"},
      {"measurement": "CLSI QC range", "setting": "S. aureus ATCC29213 [23]", "value": "1-4"},
      {"measurement": "FaAST (MIC)", "setting": "E. faecium Ef26 [24]", "value": 2, "unit": "µg/mL"},
      {"measurement": "BMD (MIC)", "setting": "[25]", "value": 64, "unit": "µg/mL"},
      {"measurement": "BMD (MIC)", "setting": "[26]", "value": 64, "unit": "µg/mL"},
      {"measurement": "MIC, FaAST", "setting": "[27]", "value": 1, "unit": "µg/mL"},
      {"measurement": "FaAST (MIC)", "setting": "E. faecium Ef28 [28]", "value": 2, "unit": "µg/mL"},
      {"measurement": "BMD (MIC)", "setting": "E. faecium Ef28 [29]", "value": 2, "unit": "µg/mL"}
    ]}
  ]
}
